One data set relates to ETB. Put plainly: ETB radio receptor assay *2, 125I-endothelin-1, guinea pig kidney crude membrane fraction. It counts as binding, Guinea pigs. To be noted: relative activity, 37 °C, 90 minutes. In a few lines: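 Radioligand binding used crude guinea pig kidney membranes (2.1 µg protein) with 740 Bq 125I-endothelin-1. Incubation was 90 min at 37 °C in 50 mM Tris-HCl pH 7.4, 0.1 mM PMSF, 1 mM EDTA, 0.2% BSA. Bound radioactivity was collected by GF/B filtration and measured by gamma counting.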

A further data set concerns the target T1, NK2 receptor (Bos taurus, UniProt P05363).
T1 construct: The membrane fraction containing the receptor was prepared from the inner wall of the bovine third stomach; tissue Kyoto Chuo Chikusan Fukuseibutsu Oroshi Kyoukai (tissue); host or cells: inner wall of bovine third stomach, membrane fraction
T1 sequence (P05363 1-384): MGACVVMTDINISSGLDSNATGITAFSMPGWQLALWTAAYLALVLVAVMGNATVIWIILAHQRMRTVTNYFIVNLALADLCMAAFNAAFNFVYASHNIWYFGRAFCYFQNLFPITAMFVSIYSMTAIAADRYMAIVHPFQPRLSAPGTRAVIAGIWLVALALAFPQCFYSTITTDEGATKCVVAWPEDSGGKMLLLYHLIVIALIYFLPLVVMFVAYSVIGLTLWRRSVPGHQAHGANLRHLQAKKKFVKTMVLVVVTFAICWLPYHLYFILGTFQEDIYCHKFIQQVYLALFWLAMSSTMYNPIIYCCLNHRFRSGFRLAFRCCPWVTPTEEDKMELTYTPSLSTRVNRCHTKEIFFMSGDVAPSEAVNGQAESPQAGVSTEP
Nature of the data set: Assay of affinity for receptor (3): binding inhibiting activity on NK2 receptor, 125I-neurokinin A, membrane fraction of bovine third stomach inner wall. To be noted: 125I-NKA, 25°C, 3 hours. The procedure:
Assay of Affinity for Receptor (3) ... Binding Inhibiting Activity on NK2 Receptor
The method of Paul L. M. Van Giersbergen et al. [Proc. Natl. Acad. Sci. U.S.A., 88, 1661 (1991) was modified for this assay. The membrane fraction containing the receptor was prepared from the inner wall of the bovine third stomach (purchased from Kyoto Chuo Chikusan Fukuseibutsu Oroshi Kyoukai).
The inner wall of the bovine third stomach stored at-80°C was cut to 1 cm X 1 cm or less, and disrupted in 3 liters/kg of 50 mM Tris-HCl buffer (pH 7.4) supplemented with 120 mM sodium chloride, 5 mM potassium chloride, 0.02% BSA and 5% sucrose, using a polytron homogenizer (Kinematika, Germany). Then, the disrupted product was centrifuged at 1,000 X g for 10 minutes. The supernatant was further centrifuged at 45,000 X g for 20 minutes. The precipitate was suspended in 200 ml of 50 mM Tris-HCl buffer (pH 7.4) supplemented with 300 mM potassium chloride, 10 mM ethylenediaminetetraacetic acid, 0.1 mM phenylmethylsulfonium fluoride and 0.02% BSA, and gently stirred under ice cooling for 60 minutes. The suspension was centrifuged at 45,000 X g for 20 minutes. The precipitate was washed with 200 ml of 50 mM Tris-HCl buffer (pH 7.4), and stored in the frozen state at -40°C as a receptor sample.
This sample was suspended in a reaction buffer solution [50 mM Tris-HCl buffer (pH 7.4), 0.02% bovine serum albumin and 4 mM manganese chloride] so as to give a protein concentration of 0.7 mg/ml, and 100 µl thereof was used for reaction. A test sample and ^125I-NKA (0.61 KBq, ^125I-neurokinin A, 81.4 TBq/mmol, Du Pont/NEN Research Products, U.S.A.) were also added, and reacted in 0.2 ml of the reaction buffer solution at 25°C for 3 hours. The reaction mixture was rapidly filtered through a glass filter (GF/B, Whatman, U.S.A.) using a cell harvester (Type 290PHD, Cambridge Technology Inc.) to terminate the reaction, and washed 3 times with 250 µl of 50 mM Tris-HCl buffer (pH 7.4) supplemented with 0.02% bovine serum albumin. The radioactivity left on the filter was measured with a gamma-ray counter. Results are shown in Table 1 as the binding inhibiting activity (IC50, unit: µM) on the NK2 receptor.

Data set [1] concerns the target T2, endothelin receptor A (ETA) (Sus scrofa, UniProt Q29010).
T2 construct: A membrane fraction prepared from the porcine heart; from tissue; host or cells: porcine heart membrane fraction
T2 sequence (Q29010 21-427): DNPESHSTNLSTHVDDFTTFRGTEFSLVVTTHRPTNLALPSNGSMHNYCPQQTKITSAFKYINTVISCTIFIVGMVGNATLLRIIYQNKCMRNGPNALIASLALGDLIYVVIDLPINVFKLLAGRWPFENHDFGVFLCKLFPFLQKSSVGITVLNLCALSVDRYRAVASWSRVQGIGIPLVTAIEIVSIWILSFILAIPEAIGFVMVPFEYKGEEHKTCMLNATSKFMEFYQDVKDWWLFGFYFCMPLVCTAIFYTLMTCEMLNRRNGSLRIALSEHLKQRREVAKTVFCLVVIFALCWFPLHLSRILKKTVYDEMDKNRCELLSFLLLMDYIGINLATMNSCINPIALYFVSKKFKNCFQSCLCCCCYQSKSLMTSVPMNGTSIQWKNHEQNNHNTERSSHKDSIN
Nature of the data set: Assay of affinity for receptor (1): binding activity on ETA receptor, 125I-labeled endothelin-1, porcine heart membrane fraction. Set-up: key: relative specific activity; reference cyclic pentapeptide ETA binding = 1.0. The following applies: specific activity, taking the binding activity of control cyclo[-D-Glu-Ala-D-aIle-Leu-D-Trp-] on receptor A as 1.0, 25°C, 1 hour. The method, boiled down:
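Porcine heart membranes (0.15 mg/ml) incubated with 125I-endothelin-1 and test peptide for 1 h at 25°C, then centrifuged; pellet-bound radioactivity counted by gamma counter. Values given as specific activity relative to reference cyclo[-D-Glu-Ala-D-aIle-Leu-D-Trp-], set at 1.0.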

For data set [2] the following is noted: amide bond, DCC/HONB (active ester), TEA, DMF, 16.0 h, 4 steps.
For data set [3] the following is noted: amide bond; 18-membered ring; HONB/DCC preactivation; HCl; DIEA; DMF; 4.75 mM; 3 steps.
The conditions of data set [4]: amide bond; 18-membered ring; HONB/DCC (preactivation); HCl/dioxane; TEA; DMF; 9.5 mM; 3 steps.

Like-named read-outs stand apart in the source and are kept apart here. Non-standard residues stand in square brackets, D forms with d. Residues, ends and D or L forms follow the SMILES beside them. Groups on a side chain read outwards from the residue. *: point of attachment. NHPhenethyl = c1ccc(CCN*)cc1; X2 = c1ccc2c(c1)CCN2*; NHBn = c1ccc(CN*)cc1

Usually IC50 stands for the concentration at which inhibition is half-maximal.

As for `CC(C)C[C@@H]1NC(=O)[C@H](CC(=O)O)NC(=O)[C@@H](CC(=O)O)NC(=O)[C@@H](Cc2c[nH]c3ccccc23)NC(=O)[C@H](CC(C)C)NC(=O)[C@@H](CC(C)C)NC1=O` [Example 32, Cyclo[-D-Asp-Asp-Leu-D-Leu-Leu-D-Trp-]] (cyclo(DL[dL]L[dW][dD])), the “Binding Activity on ET Receptor (R. act.) ETB*2” value in the data set with ETB is listed as 7.7. Besides, at NK2 receptor, the IC50 is 2.6 µM. The “Binding Activity on ET Receptor (R. act.) ETA” value in data set [1] is reported as 4.0.

On to `CC(C)C[C@@H]1NC(=O)[C@@H](CC(C)C)NC(=O)[C@H](Cc2c[nH]c3ccccc23)NC(=O)[C@H](CC(=O)O)NC(=O)[C@@H](CC(=O)O)NC(=O)[C@@H](Cc2c[nH]c3ccccc23)NC1=O` [Example 33, Cyclo[-D-Asp-Asp-Trp-D-Leu-Leu-D-Trp-]] (cyclo(DW[dL]L[dW][dD])), for which the “Binding Activity on ET Receptor (R. act.) ETB*2” value with ETB is 5.6. In addition, the IC50 at NK2 receptor was found to be 0.35 µM. Besides, in data set [1], the “Binding Activity on ET Receptor (R. act.) ETA” value is recorded as 2.9.

On to `CC(C)C[C@@H]1NC(=O)[C@@H](CC(C)C)NC(=O)[C@H](CC(=O)O)NC(=O)[C@H](CCC(=O)N2CCc3ccccc32)NC(=O)[C@@H](CC(=O)O)NC(=O)[C@@H](Cc2c[nH]c3ccccc23)NC1=O` [Example 76, Cyclo[-D-Asp-Glu(R3)-Asp-D-Leu-Leu-D-Trp-]] (cyclo(D[dL]L[dW][dD]E(X2))), for which the IC50 on NK2 receptor stood at 10 µM.

Consider `CC(C)C[C@@H]1NC(=O)[C@@H](CC(C)C)NC(=O)[C@H](CC(=O)O)NC(=O)[C@H](CC(=O)N[C@@H](Cc2c[nH]c3ccccc23)C(=O)NCc2ccccc2)NC(=O)[C@@H](CC(=O)O)NC(=O)[C@@H](Cc2c[nH]c3ccccc23)NC1=O` [Example 92, Cyclo[-D-Asp-Asp(Trp-NHBzl)-Asp-D-Leu-Leu-D-Trp-]] (cyclo(D([Trp-NHBn])D[dL]L[dW][dD])), for which, on NK2 receptor, the IC50 worked out at 4 µM.

With `CC(C)C[C@@H]1NC(=O)[C@@H](CC(C)C)NC(=O)[C@H](CC(=O)O)NC(=O)[C@H](CC(=O)N[C@@H](Cc2c[nH]c3ccccc23)C(=O)NCCc2ccccc2)NC(=O)[C@@H](CC(=O)O)NC(=O)[C@@H](Cc2c[nH]c3ccccc23)NC1=O` [Example 94, Cyclo[-D-Asp-Asp(Trp-NHCH2CH2Ph)-Asp-D-Leu-Leu-D-Trp-]] (cyclo(D([Trp-NHPhenethyl])D[dL]L[dW][dD])), at NK2 receptor, the IC50 was 5.8 µM.

`CC(C)C[C@@H]1NC(=O)[C@@H](c2cccs2)NC(=O)[C@H](CC(=O)O)NC(=O)[C@H](CCC(=O)NCc2ccccc2)NC(=O)[C@@H](CC(=O)O)NC(=O)[C@@H](Cc2c[nH]c3ccccc23)NC1=O` [cyclo[-D-Asp-Gln(Bzl)-Asp-D-Thg(2)-Leu-D-Trp-]]: the ring closure, yield of all isomers in data set [2] (from CC(C)C[C@H](NC(=O)[C@H](NC(=O)OC(C)(C)C)c1cccs1)C(=O)N[C@H](Cc1c[nH]c2ccccc12)C(=O)N[C@H](CC(=O)OCc1ccccc1)C(=O)N[C@@H](CCC(=O)NCc1ccccc1)C(=O)N[C@@H](CC(=O)OCc1ccccc1)C(=O)O, 5.06 mM) was determined as 8.8%.

For the compound `CC(C)C[C@@H]1NC(=O)[C@@H](c2cccs2)NC(=O)[C@H](CC(=O)O)NC(=O)[C@@H]2C[C@@H](OCc3ccccc3)CN2C(=O)[C@@H](CC(=O)O)NC(=O)[C@@H](Cc2c[nH]c3ccccc23)NC1=O` [cyclo[-D-Asp-Hyp(Bzl)-Asp-D-Thg(2)-Leu-D-Trp-]], in data set [2] (from CC(C)C[C@H](NC(=O)[C@H](NC(=O)OC(C)(C)C)c1cccs1)C(=O)N[C@H](Cc1c[nH]c2ccccc12)C(=O)N[C@H](CC(=O)OCc1ccccc1)C(=O)N1C[C@H](OCc2ccccc2)C[C@H]1C(=O)N[C@@H](CC(=O)OCc1ccccc1)C(=O)O, 4.98 mM), the ring closure, yield of all isomers turned out to be 5.7%.

In turn, `CC(C)C[C@@H]1NC(=O)[C@@H](CC(C)C)NC(=O)[C@H](CC(=O)O)NC(=O)[C@H](CCCNC(=O)c2ccccc2)NC(=O)[C@@H](CC(=O)O)NC(=O)[C@@H](Cc2c[nH]c3ccccc23)NC1=O` [cyclo[-D-Asp-Orn(COPh)-Asp-D-Leu-Leu-D-Trp-]] displayed a ring closure, yield of all isomers in data set [2] (from CC(C)C[C@H](NC(=O)[C@@H](CC(C)C)NC(=O)[C@H](CC(=O)OCc1ccccc1)NC(=O)[C@H](CCCNC(=O)c1ccccc1)NC(=O)OC(C)(C)C)C(=O)N[C@H](Cc1c[nH]c2ccccc12)C(=O)N[C@H](CC(=O)OCc1ccccc1)C(=O)O, 5.03 mM) of 48.1%.

Take “cyclo[-D-Asp(OBzl)-Asn(NHCH2CH2Ind)-Asp(OBzl)-D-Thg(2)-Leu-D-Trp-]”: the ring closure, crude yield in data set [3] came to 90.4%.

“cyclo[-D-Asp(OBzl)-Hyp(Bzl)-Asp(OBzl)-D-Leu-Leu-D-Trp-]”: the ring closure, isolated yield in data set [4] is 82.6%.

The values above are taken from EP0552417B1, “Cyclic peptides and use thereof” (priority 1991, dated 1993).
